Patent US9464084B2, “P2X7 modulators” (Janssen Pharmaceutica NV, priority 2013, dated 2016)

What follows are compounds tested against P2X7 (Homo sapiens (Human), UniProt Q99572) (assay: P2X7 antagonism in human PBMCs (LPS + Bz-ATP induced IL-1β release, ELISA)). Conditions: compound 1 μM, LPS 30 ng/ml, Bz-ATP 0.5 mM.
Format: cell-based
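Note: PBMCs from donor human blood, with a further 1.5 h incubation of the cells in the assay.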

Sequence of P2X7 (Q99572 whole entry): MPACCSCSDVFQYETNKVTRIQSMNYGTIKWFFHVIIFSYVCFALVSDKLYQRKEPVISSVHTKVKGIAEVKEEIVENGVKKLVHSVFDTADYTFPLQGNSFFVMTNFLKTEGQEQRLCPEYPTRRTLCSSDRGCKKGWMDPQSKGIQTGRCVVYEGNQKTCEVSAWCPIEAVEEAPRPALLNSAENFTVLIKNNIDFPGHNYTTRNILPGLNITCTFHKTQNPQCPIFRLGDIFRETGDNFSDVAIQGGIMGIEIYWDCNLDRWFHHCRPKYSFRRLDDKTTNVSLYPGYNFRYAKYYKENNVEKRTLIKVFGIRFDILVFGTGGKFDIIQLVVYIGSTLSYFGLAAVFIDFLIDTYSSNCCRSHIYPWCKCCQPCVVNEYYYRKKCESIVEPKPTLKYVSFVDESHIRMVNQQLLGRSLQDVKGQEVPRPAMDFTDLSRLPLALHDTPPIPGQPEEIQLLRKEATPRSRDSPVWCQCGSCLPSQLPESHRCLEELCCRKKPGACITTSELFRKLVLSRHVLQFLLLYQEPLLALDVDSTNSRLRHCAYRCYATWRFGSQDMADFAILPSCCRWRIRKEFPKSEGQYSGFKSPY

PBMC 1 μM (% control) | SMILES
5.3 % control | CC1c2ncn(-c3ccc(F)cc3)c2CCN1C(=O)c1cccc(C(F)(F)F)c1Cl (centres unmarked) [Example 18, (2-Chloro-3-(trifluoromethyl)phenyl)(1-(4-fluorophenyl)-4-methyl-6,7-dihydro-1H-imidazo[4,5-c]pyridin-5(4H)-yl)methanone]
5.2 % control | C[C@H]1c2nnn(-c3cnccn3)c2CCN1C(=O)c1cccc(C(F)(F)F)c1Cl (single isomer, unassigned) [Example 75, (4 S*)-5-{[2-Chloro-3-(trifluoromethyl)phenyl]carbonyl}-4-methyl-1-pyrazin-2-yl-4,5,6,7-tetrahydro-1H-[1,2,3]triazolo[4,5-c]pyridine]
100.4 % control | O=C(c1cccnc1C(F)(F)F)N1CCc2c(-c3ccccc3)n[nH]c2C1 [Example 322, (3-phenyl-4,5-dihydro-1H-pyrazolo[3,4-c]pyridin-6(7H)-yl)(2-(trifluoromethyl)pyridin-3-yl)methanone]
76.5 % control | O=C(c1cccc(C(F)(F)F)c1Cl)N1CCc2ncn(-c3cnccn3)c2C1 [Example 10, (2-Chloro-3-(trifluoromethyl)phenyl)(3-(pyrazin-2-yl)-6,7-dihydro-3H-imidazo[4,5-c]pyridin-5(4H)-yl)methanone]
92.0 % control | Cn1nc2c(c1-c1ccc(F)cc1)CCN(C(=O)c1cccc(Cl)c1Cl)C2 [Example 326, (2,3-dichlorophenyl)(3-(4-fluorophenyl)-2-methyl-4,5-dihydro-2H-pyrazolo[3,4-c]pyridin-6(7H)-yl)methanone]
24.7 % control | Cn1nc2c(c1-c1cccnc1)CCN(C(=O)c1cccc(C(F)(F)F)c1Cl)C2 [Example 107, 6-{[2-Chloro-3-(trifluoromethyl)phenyl]carbonyl}-2-methyl-3-pyridin-3-yl-4,5,6,7-tetrahydro-2H-pyrazolo[3,4-c]pyridine]
87.0 % control | O=C(c1cccc(C(F)(F)F)c1Cl)N1CCc2c(ncn2-c2ccccc2)C1CO (centres unmarked) [Example 30, (5-{[2-Chloro-3-(trifluoromethyl)phenyl]carbonyl}-1-phenyl-4,5,6,7-tetrahydro-1H-imidazo[4,5-c]pyridin-4-yl)methanol]

Same assay, conditions: compound 10 μM, LPS 30 ng/ml, Bz-ATP 0.5 mM

PBMC 10 μM (% control) | SMILES
0.6 % control | CC1Cc2c(nnn2-c2ncc(F)cn2)CN1C(=O)c1cccc(Cl)c1Cl (centres unmarked) [Example 203, 5-[(2,3-Dichlorophenyl)carbonyl]-1-(5-fluoropyrimidin-2-yl)-6-methyl-4,5,6,7-tetrahydro-1H-[1,2,3]triazolo[4,5-c]pyridine]
28.5 % control | C[C@@H]1Cc2c(nnn2-c2cnccn2)CN1C(=O)c1cccc(C(F)(F)F)c1Cl (single isomer, unassigned) [Example 211, (6R*)-5-{[2-Chloro-3-(trifluoromethyl)phenyl]carbonyl}-6-methyl-1-pyrazin-2-yl-4,5,6,7-tetrahydro-1H-[1,2,3]triazolo[4,5-c]pyridine]
44.7 % control | C[C@@H]1c2ncn(-c3ccccn3)c2CCN1C(=O)c1cccc(C(F)(F)F)c1Cl (single isomer, unassigned) [Example 44, (4R*)-5-{[2-Chloro-3-(trifluoromethyl)phenyl]carbonyl}-4-methyl-1-pyridin-2-yl-4,5,6,7-tetrahydro-1H-imidazo[4,5-c]pyridine]
−0.3 % control | C[C@H]1c2nnn(-c3cnccn3)c2CCN1C(=O)c1cccc(C(F)(F)F)c1Cl (single isomer, unassigned) [Example 75, (4 S*)-5-{[2-Chloro-3-(trifluoromethyl)phenyl]carbonyl}-4-methyl-1-pyrazin-2-yl-4,5,6,7-tetrahydro-1H-[1,2,3]triazolo[4,5-c]pyridine]
2.1 % control | C[C@@H]1c2ncn(-c3ccc(F)cc3)c2CCN1C(=O)c1cccc(C(F)(F)F)c1Cl (single isomer, unassigned) [Example 46, (4R*)-5-{[2-Chloro-3-(trifluoromethyl)phenyl]carbonyl}-1-(4-fluorophenyl)-4-methyl-4,5,6,7-tetrahydro-1H-imidazo[4,5-c]pyridine]
58.0 % control | Cc1cccc(-n2nnc3c2CCN(C(=O)c2cccc(C(F)(F)F)c2Cl)[C@@H]3C)n1 (single isomer, unassigned) [Example 226, (R*)-(2-chloro-3-(trifluoromethyl)phenyl)(4-methyl-1-(6-methylpyridin-2-yl)-6,7-dihydro-1H-[1,2,3]triazolo[4,5-c]pyridin-5(4H)-yl)methanone]
36.7 % control | Cc1cccnc1-n1nnc2c1CCN(C(=O)c1cccc(C(F)(F)F)c1Cl)[C@H]2C (single isomer, unassigned) [Example 292, (S*)-(2-chloro-3-(trifluoromethyl)phenyl)(4-methyl-1-(3-methylpyridin-2-yl)-6,7-dihydro-1H-[1,2,3]triazolo[4,5-c]pyridin-5(4H)-yl)methanone]
3.6 % control | C[C@@H]1Cc2c(nnn2-c2ccn[nH]2)[C@@H](C)N1C(=O)c1cccc(C(F)(F)F)c1Cl [Example 296, (2-chloro-3-(trifluoromethyl)phenyl)((4R,6R)-4,6-dimethyl-1-(1H-pyrazol-5-yl)-6,7-dihydro-1H-[1,2,3]triazolo[4,5-c]pyridin-5(4H)-yl)methanone]
−0.7 % control | Cc1c(C(=O)N2CCc3c(nnn3-c3ncccn3)[C@H]2C)cccc1C(F)(F)F (single isomer, unassigned) [Example 188, (R*)-(4-methyl-1-(pyrimidin-2-yl)-6,7-dihydro-1H-[1,2,3]triazolo[4,5-c]pyridin-5(4H)-yl)(2-methyl-3-(trifluoromethyl)phenyl)methanone]
2.6 % control | C[C@@H]1Cc2c(nnn2-c2ccn[nH]2)[C@H](C)N1C(=O)c1cccc(C(F)(F)F)c1Cl [Example 297, (2-chloro-3-(trifluoromethyl)phenyl)((4S,6R)-4,6-dimethyl-1-(1H-pyrazol-5-yl)-6,7-dihydro-1H-[1,2,3]triazolo[4,5-c]pyridin-5(4H)-yl)methanone]
−4.2 % control | C[C@H]1Cc2c(nnn2-c2ncccc2F)CN1C(=O)c1cccc(C(F)(F)F)c1Cl (single isomer, unassigned) [Example 168, (6S*)-5-{[2-Chloro-3-(trifluoromethyl)phenyl]carbonyl}-1-(3-fluoropyridin-2-yl)-6-methyl-4,5,6,7-tetrahydro-1H-[1,2,3]triazolo[4,5-c]pyridine]
−5.5 % control | Cc1c(C(=O)N2CCc3c(nnn3-c3ncccn3)C2C)cccc1C(F)(F)F (centres unmarked) [Example 282, (4-methyl-1-(pyrimidin-2-yl)-6,7-dihydro-1H-[1,2,3]triazolo[4,5-c]pyridin-5(4H)-yl)(2-methyl-3-(trifluoromethyl)phenyl)methanone]
−0.9 % control | CC1Cc2c(nnn2-c2ncccc2F)CN1C(=O)c1cccc(Cl)c1Cl (centres unmarked) [Example 161, (2,3-Dichlorophenyl)(1-(3-fluoropyridin-2-yl)-6-methyl-6,7-dihydro-1H-[1,2,3]triazolo[4,5-c]pyridin-5(4H)-yl)methanone]
0.2 % control | CC1Cc2c(nnn2-c2ncccc2F)CN1C(=O)c1cccc(C(F)(F)F)c1Cl (centres unmarked) [Example 122, 5-{[2-Chloro-3-(trifluoromethyl)phenyl]carbonyl}-1-(3-fluoropyridin-2-yl)-6-methyl-4,5,6,7-tetrahydro-1H-[1,2,3]triazolo[4,5-c]pyridine]
0.1 % control | C[C@H]1Cc2c(nnn2-c2ncc(F)cn2)CN1C(=O)c1ccnc(C(F)(F)F)c1F (single isomer, unassigned) [Example 228, (S*)-(3-fluoro-2-(trifluoromethyl)pyridin-4-yl)(1-(5-fluoropyrimidin-2-yl)-6-methyl-6,7-dihydro-1H-[1,2,3]triazolo[4,5-c]pyridin-5(4H)-yl)methanone]

The next lines start with the compound.

SMILES | PBMC 10 μM (% control)
C[C@H]1c2nnn(-c3ncc(F)cn3)c2CCN1C(=O)c1cccc(C(F)(F)F)c1F (single isomer, unassigned) [Example 178, (S*)-(2-fluoro-3-(trifluoromethyl)phenyl)(1-(5-fluoropyrimidin-2-yl)-4-methyl-6,7-dihydro-1H-[1,2,3]triazolo[4,5-c]pyridin-5(4H)-yl)methanone] | −4.7 % control
O=C(c1ccc(Cl)cc1Cl)N1CCc2c(nnn2-c2ncccn2)C1 [Example 257, (2,4-dichlorophenyl)(1-(pyrimidin-2-yl)-6,7-dihydro-1H-[1,2,3]triazolo[4,5-c]pyridin-5(4H)-yl)methanone] | 7.1 % control
O=C(c1cccc(C(F)(F)F)c1Cl)N1CCc2[nH]cnc2C1C(F)(F)F (centres unmarked) [Example 39, 5-{[2-Chloro-3-(trifluoromethyl)phenyl]carbonyl}-4-(trifluoromethyl)-4,5,6,7-tetrahydro-1H-imidazo[4,5-c]pyridine] | 112.0 % control
CC1Cc2c(nnn2-c2ncc(F)cn2)CN1C(=O)c1ccc(F)c(Cl)c1Cl (centres unmarked) [Example 213, 5-[(2,3-Dichloro-4-fluorophenyl)carbonyl]-1-(5-fluoropyrimidin-2-yl)-6-methyl-4,5,6,7-tetrahydro-1H-[1,2,3]triazolo[4,5-c]pyridine] | 0.3 % control
CC1c2nnn(-c3cc[nH]n3)c2CCN1C(=O)c1cccc(C(F)(F)F)c1Cl (centres unmarked) [Example 85, 5-{[2-Chloro-3-(trifluoromethyl)phenyl]carbonyl}-4-methyl-1-(1H-pyrazol-3-yl)-4,5,6,7-tetrahydro-1H-[1,2,3]triazolo[4,5-c]pyridine] | 24.7 % control
Cc1nc(-n2nnc3c2CCN(C(=O)c2cccc(C(F)(F)F)c2Cl)C3C)ncc1F (single isomer, unassigned) [Example 306, (S*)-(2-chloro-3-(trifluoromethyl)phenyl)(1-(5-fluoro-4-methylpyrimidin-2-yl)-4-methyl-6,7-dihydro-1H-[1,2,3]triazolo[4,5-c]pyridin-5(4H)-yl)methanone] | 2.5 % control
COCCn1ccc(-n2nnc3c2CCN(C(=O)c2cccc(C(F)(F)F)c2Cl)[C@H]3C)n1 (single isomer, unassigned) [Example 249, (S*)-(2-Chloro-3-(trifluoromethyl)phenyl)(1-(1-(2-methoxyethyl)-1H-pyrazol-3-yl)-4-methyl-6,7-dihydro-1H-[1,2,3]triazolo[4,5-c]pyridin-5(4H)-yl)methanone] | 5.1 % control
